Test results as given in US8524861B2, “Treatment of bacterial infections” (priority 2004, dated 2013).

How the values were obtained:
Type in all cases: cell-based
[1] = test system: Pseudomonas aeruginosa (ATCC strain 9027); details: summary in description
Method: Bacterial Stocks—ATCC derived stock bacteria were obtained from Oxoid Limited. Pseudomonas aeruginosa (ATCC strain 9027) or Staphylococcus aureus (ATCC strain 6538P) were obtained in ‘Cultiloop’ format. Stocks were prepared by inoculating 20 ml of LB broth with a single Cultiloop, and incubating overnight at 37° C. Cells present after overnight incubation were harvested by removing larger aggregates by centrifugation (3000 g, 10 minutes), and withdrawing 16 ml of the supernatant, which was likely to contain mainly planktonic bacteria. To this, 4 ml of sterile glycerol was added (the latter having been sterilised by autoclaving). The resultant suspension was divided between 15× 1 ml cryovials before freezing at −85° C.
Preliminary experiments were carried out to estimate the amount to dilute bacterial stocks which when on addition of 25 μl of diluted stock to 100 μl of fresh LB broth would result in bacteria in log phase growth after overnight incubation at 37° C.
The peptides were examined for antibacterial efficacy against Staphylococcus aureus. To test the efficacy of peptides, dilutions of test peptides or PBS (for use as a control) were prepared in LB broth, and 100 μl aliquots of these placed in 96-well plates. A vial of planktonic bacterial stock was thawed in a 37° C. incubator and diluted to the level previously determined which would produce log phase growth after overnight incubation (see above). 25 μl of this bacterial dilution was then added to the test wells (some wells containing LB broth without peptide were left without any bacterial inoculation, these being used as a blank). After overnight growth, the concentration of bacteria in individual wells was assessed by measuring absorbance at 620 nm, in a microplate spectrophotometer. The average absorbance of wells for specific concentrations of peptides was calculated, and from this the percentage inhibition (relative to untreated wells) was also calculated and plotted against concentration (along with an estimate of error on that % inhibition).
Peptides in accordance with the invention were also examined for antibacterial efficacy against Pseudomonas aeruginosa using the same technique as described above to calculate the IC50 values.
Points were obtained by dividing the average for six treated wells by the average for six untreated wells, and bars show an estimate of the error for these calculated values.
The inventor constructed an expanded library of peptides derived from either apolipoprotein B or apolipoprotein E in order to further evaluate polypeptides in accordance with the invention. Further experiments were then conducted to investigate the antibacterial activity of this peptide library against the bacteria P. aeroginosa, S. aureus and S. pneumoniae. The methods used to determine the IC50 values for each peptide were as described in the Example 1.

Pseudomonas aeruginosa [2] = test: Antibacterial efficacy on peptide pre-treated contact lenses; details: lens pre-treated with 250 μM peptide for 2 hours
Method: Referring to FIG. 2, there is shown a bar graph illustrating growth of Pseudomonas aeruginosa overnight on Johnson and Johnson Acuvue contact lenses following pre-treatment with polypeptide GIN 1p, or a control treatment. Growth was measured by examination by light microscopy, and by assessing metabolic activity of any bacteria present using MTT reduction. The data illustrates the efficacy of the antibacterial nature of the peptides according to the invention when applied to contact lenses. Antibacterial activity was assessed by measuring MTT reduction.
Lenses were placed in 24-well plates before treatment with 75 μl of 250 μM GIN-1p in PBS (pH7.4) or with 75 μl of PBS and incubated for 2 hours at […], before removal of these solutions from the lens by aspiration. A further 1 ml of PBS was then added to the wells to wash away any loosely attached peptide, before aspiration of this wash solution. […]
The plates were returned to the incubator at 37° C. overnight. […] The degree of formazan production was assessed by measuring absorbance at 540 nm for aliquots of these solutions; these values are shown in FIG. 2, and represent the average for four lenses, with the bars showing standard deviation. […]

Pseudomonas aeruginosa [3] = test system: Pseudomonas aeruginosa
Method: To test the effect of treatment of the polypeptides according to the invention by autoclaving, a 400 μM stock solution of GIN1p was prepared in PBS, and 420 μl aliquots were placed in four Eppendorf tubes (with screw lids). After securing the lids, two of the tubes were loaded into a metal rack held within a Pyrex beaker, and placed into a Prestige Medical Clinical Autoclave. The remaining two tubes were left untreated, as a control. The autoclave was then activated, and underwent two autoclave cycles, each of which involved exposure of the peptide solutions to 126° C. for 11 min. Finally, efficacy of the two autoclaved and the two control peptide samples against P. aeruginosa was tested as previously described.
Referring to FIG. 7, there is shown the level of growth of Pseudomonas aeruginosa after exposure of a bacterial inoculum to various concentrations of GIN 1p (a polypeptide in accordance with the present invention) which had been either autoclaved or without autoclaving, expressed as a % of growth for untreated bacteria. Accordingly, polypeptides according to the invention are therefore suitable for use with products, which would normally be sterilised by autoclaving during the manufacturing procedure.

Ac-LRKLRKRLLLRKLRKRLL-NH2 [MU_10]
Effectiveness against Pseudomonadales, in particular P. aeruginosa, in words [1]: particularly effective
Appearance of solution containing pre-treated contact lens after overnight incubation (Pseudomonas aeruginosa [2]; 10^4 challenge organisms, FIG. 3): colourless
Bacterial growth on contact lens surface by light micrograph after overnight incubation (Pseudomonas aeruginosa [2]; FIG. 4): minimal bacterial growth
IC50 (Pseudomonas aeruginosa [3]): ~2000 nM
